Earlier results as cited in article PMC10406726, “Development, scrutiny, and modulation of transient reporter gene assays of the xenobiotic metabolism pathway in zebrafish hepatocytes” (Cell Biology and Toxicology, 2021).

Legend:
[1] = target: ATAD5 (ATPase family, AAA domain containing 5); parameters: method as in ToxCast database, CompTox dashboard; conditions: TOX21_ELG1_LUC_Agonist; ref ToxCast database, CompTox dashboard; cited from earlier work
[2] = target: ESRRA (estrogen-related receptor alpha); parameters: method as in ToxCast database, CompTox dashboard; conditions: TOX21_ERR_Agonist; ref ToxCast database, CompTox dashboard; cited from earlier work
[3] = test system: FOS (FBJ murine osteosarcoma viral oncogene homolog); parameters: method as in ToxCast database, CompTox dashboard; conditions: ATG_AP_1_CIS_up; ref ToxCast database, CompTox dashboard; cited from earlier work
[4] = test system: NFE2L2 (nuclear factor, erythroid 2-like 2); parameters: method as in ToxCast database, CompTox dashboard; conditions: ATG_NRF2_ARE_CIS_up; ref ToxCast database, CompTox dashboard; cited from earlier work
ARE (channel 1) = test system: ARE (channel 1); parameters: method as in ToxCast database, CompTox dashboard; conditions: TOX21_ARE_BLA_Agonist_ch1; ref ToxCast database, CompTox dashboard; cited from earlier work
[5] = test system: NR1I2 (nuclear receptor subfamily 1, group I, member 2); parameters: method as in ToxCast database, CompTox dashboard; conditions: ATG_PXRE_CIS_up; ref ToxCast database, CompTox dashboard; cited from earlier work
[6] = target: ESR1 (estrogen receptor 1); parameters: method as in ToxCast database, CompTox dashboard; conditions: ATG_ERa_TRANS_up; ref ToxCast database, CompTox dashboard; cited from earlier work
[7] = target: VDR (vitamin D (1,25-dihydroxyvitamin D3) receptor); parameters: method as in ToxCast database, CompTox dashboard; conditions: ATG_VDRE_CIS_up; ref ToxCast database, CompTox dashboard; cited from earlier work
[8] = test system: AHR (aryl hydrocarbon receptor); parameters: method as in ToxCast database, CompTox dashboard; conditions: TOX21_AhR_LUC_Agonist; ref ToxCast database, CompTox dashboard; cited from earlier work
HEK293 (cell cycle) = test system: HEK293 (cell cycle); parameters: method as in ToxCast database, CompTox dashboard; conditions: TOX21_RT_HEK293_FLO_40hr_viability; ref ToxCast database, CompTox dashboard; cited from earlier work
AR (androgen receptor) = target: AR (androgen receptor); parameters: method as in ToxCast database, CompTox dashboard; conditions: TOX21_AR_LUC_MDAKB2_Agonist; ref ToxCast database, CompTox dashboard; cited from earlier work
ZFL cells = test system: ZFL cells; parameters: method as in Eknefelt [2018]; conditions: TCDD; same cellular context, identical exposure concentrations; ref Eknefelt [2018]; cited from earlier work

O=c1cc(-c2ccccc2)oc2ccc3ccccc3c12 [BNF, β-naphthoflavone]
AC50 [1]: 47.4 nM | AC50 [2]: 67.2 nM | AC50 [3]: 156 nM | AC50 [4]: 157 nM | AC50 (ARE (channel 1)): 837 nM | AC50 [5]: 2240 nM | AC50 [6]: 2860 nM | AC50 [7]: 4280 nM | AC50 [8]: […] | AC50 (HEK293 (cell cycle)): 5050 nM | AC50 (AR (androgen receptor)): 5430 nM

Clc1cc2c(cc1Cl)Oc1cc(Cl)c(Cl)cc1O2 [TCDD, 2,3,7,8-tetrachlorodibenzo-p-dioxin]
cytotoxicity, historical data (ZFL cells): no TCDD-induced cytotoxicity
